Assays:
[1] = tested on: E. coli and the human cytosolic A-site; experiment: Selectivity factor, E. coli versus human cytosolic A-site; assay type: binding; settings: 5.75 × IC50(human)/IC50(E. coli); above 5.75 = selectivity to bacterial A-site
[2] = tested on: L1-stage C. elegans; experiment: Toxicity in C. elegans, MTT assay; assay type: in vivo, Caenorhabditis elegans; settings: lowest concentrations used (3.13 – 1.56 μM), 24 h
[3] = tested on: rRNA A-site; settings: read-out: IC50, F-NEO screening test; range over rRNA A-sites; cited from earlier work
[4] = tested on: 4 MRSA NEO-resistant strains; experiment: MIC against the MRSA NEO-resistant strains; assay type: cell-based, Staphylococcus aureus
[5] = tested on: E. coli H4H; experiment: MIC and growth inhibition, microdilution; assay type: cell-based, Escherichia coli; settings: concentration not given
[6] = biological target: APH(2″)-Ia (Staphylococcus aureus, UniProt P0A0C1); experiment: AME modification of conjugates, APH; assay type: biochemical
Chain of APH(2″)-Ia (P0A0C1 whole entry): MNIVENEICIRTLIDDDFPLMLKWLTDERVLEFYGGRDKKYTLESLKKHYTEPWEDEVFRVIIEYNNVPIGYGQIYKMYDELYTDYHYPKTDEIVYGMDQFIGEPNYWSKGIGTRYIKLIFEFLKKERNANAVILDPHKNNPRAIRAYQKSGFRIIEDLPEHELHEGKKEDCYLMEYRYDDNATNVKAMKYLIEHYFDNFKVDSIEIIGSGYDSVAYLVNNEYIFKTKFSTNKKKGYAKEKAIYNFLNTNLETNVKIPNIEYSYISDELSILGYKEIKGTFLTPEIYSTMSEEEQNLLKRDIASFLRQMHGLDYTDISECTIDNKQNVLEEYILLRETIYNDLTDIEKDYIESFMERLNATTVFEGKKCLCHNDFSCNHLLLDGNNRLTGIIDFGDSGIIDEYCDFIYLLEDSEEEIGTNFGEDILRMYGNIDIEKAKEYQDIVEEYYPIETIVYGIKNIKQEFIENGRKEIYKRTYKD

Row | SMILES | Selectivity factor [1] | MIC values times lower than that of NEO [4] | further results
1 | NC[C@@H]1O[C@H](O[C@H]2[C@@H](O)[C@H](O[C@@H]3[C@@H](O)[C@H](N)C[C@H](N)[C@H]3O[C@H]3O[C@H](CN)[C@@H](O)[C@H](O)[C@H]3N)O[C@@H]2CNC(=O)Cc2ccc3ccc4cccc5ccc2c3c45)[C@H](N)[C@@H](O)[C@@H]1O [Compound 10] | 7.12 |  | 
2 | NC[C@@H]1O[C@H](O[C@H]2[C@@H](O)[C@H](O[C@@H]3[C@@H](O)[C@H](N)C[C@H](N)[C@H]3O[C@H]3O[C@H](CN)[C@@H](O)[C@H](O)[C@H]3N)O[C@@H]2CO)[C@H](N)[C@@H](O)[C@@H]1O [NEO, Neomycin B] |  |  | toxicity / larvae viability compared with the untreated control [2]: no significant difference; IC50 [3]: 68 to 114 nM
3 | NC[C@@H]1O[C@H](O[C@H]2[C@@H](O)[C@H](O[C@@H]3[C@@H](O)[C@H](N)C[C@H](N)[C@H]3O[C@H]3O[C@H](CN)[C@@H](O)[C@H](O)[C@H]3N)O[C@@H]2CSCCNC(=O)Cc2ccc3ccc4cccc5ccc2c3c45)[C@H](N)[C@@H](O)[C@@H]1O [Compound 13] | 5.87 | 4-16 times | 
4 | NC[C@@H]1O[C@H](O[C@H]2[C@@H](O)[C@H](O[C@@H]3[C@@H](O)[C@H](N)C[C@H](N)[C@H]3O[C@H]3O[C@H](CN)[C@@H](O)[C@H](O)[C@H]3N)O[C@@H]2CNC(=O)CCCc2ccc3ccc4cccc5ccc2c3c45)[C@H](N)[C@@H](O)[C@@H]1O [Compound 12] | 6.76 | 4-16 times | 
5 | NC[C@@H]1O[C@H](O[C@H]2[C@@H](O)[C@H](O[C@@H]3[C@@H](O)[C@H](N)C[C@H](N)[C@H]3O[C@H]3O[C@H](CN)[C@@H](O)[C@H](O)[C@H]3N)O[C@@H]2CSCCNC(=O)CCc2ccc3ccc4cccc5ccc2c3c45)[C@H](N)[C@@H](O)[C@@H]1O [Compound 14] | 6.14 |  | 
6 | NC[C@@H]1O[C@H](O[C@H]2[C@@H](O)[C@H](O[C@@H]3[C@@H](O)[C@H](N)C[C@H](N)[C@H]3O[C@H]3O[C@H](CN)[C@@H](O)[C@H](O)[C@H]3N)O[C@@H]2CSCCNC(=S)NCCCCCCNC(=O)CCCc2ccc3ccc4cccc5ccc2c3c45)[C@H](N)[C@@H](O)[C@@H]1O [Compound 16] | 5.70 | 4-16 times | reduction in growth / growth inhibition [5]: * A 30% reduction in growth was observed for compounds 15 and 16 with E. coli H4H.
7 | NC[C@@H]1O[C@H](O[C@H]2[C@@H](O)[C@H](O[C@@H]3[C@@H](O)[C@H](N)C[C@H](N)[C@H]3O[C@H]3O[C@H](CN)[C@@H](O)[C@H](O)[C@H]3N)O[C@@H]2CNC(=O)CCc2ccc3ccc4cccc5ccc2c3c45)[C@H](N)[C@@H](O)[C@@H]1O [Compound 11] | 8.29 |  | 
8 | NC[C@@H]1O[C@H](O[C@H]2[C@@H](O)[C@H](O[C@@H]3[C@@H](O)[C@H](N)C[C@H](N)[C@H]3O[C@H]3O[C@H](CN)[C@@H](O)[C@H](O)[C@H]3N)O[C@@H]2CSCCNC(=O)CCCc2ccc3ccc4cccc5ccc2c3c45)[C@H](N)[C@@H](O)[C@@H]1O [Compound 15] | 6.80 | 4-16 times | modification by APH(2″)-Ia relative to NEO [6]: increased activity; reduction in growth / growth inhibition [5]: * A 30% reduction in growth was observed for compounds 15 and 16 with E. coli H4H.

From publication PMC6503653 (European journal of medicinal chemistry, 2018)
